Structures can show the parent of a compound that is named as a salt.
How the values were obtained:
[1] = system: angiotensin II; assay: Inhibition of the angiotensin II-induced blood pressure increase in conscious normotensive rats after oral administration (invasive); format: in vivo, rat; settings: male SD rats; angiotensin II intravenously 0.1 µg/kg; test compound orally 1.0 mg/kg in 0.5% carboxymethyl cellulose
Method: On the day before the test, a cannula for the measurement of blood pressure and another cannula for the administration of a solution of angiotensin II (AII) in physiological saline (intravenously administered at 0.1 µg/kg) were inserted into the right femoral artery and the right femoral vein of each of the male SD rats (body weight: 200-350 g), respectively, under anesthesia. The rats were maintained on food and water ad libitum until immediately before the test was started. On the testing day, the former cannula so inserted was connected to a blood pressure transducer and the mean blood pressure was recorded on a polygraph. The solution of AII in physiological saline was then intravenously administered to each of the rats to raise its blood pressure. The blood-pressure raising response was repeated several times. […] In accordance with the following equation, an inhibitory rate (%) of blood pressure increase was calculated from the blood pressure increases before and after the administration of the test compound.

[2] = Measurement of bioavailability in rat; format: in vivo; settings: SD male rats, fasted overnight, 3 mg/kg intravenously (physiological saline) and orally (0.5% carboxymethyl cellulose), from plasma AUC by HPLC
Method: Measurement of bioavailability in rat
SD Male rats of 6 weeks old (5 rats a group) were fasted overnight. The test compound was then administered to each of the rats at 3 mg/kg intravenously after dissolved in physiological saline and orally after suspended in 0.5% carboxymethyl cellulose, respectively. After administration, blood was collected periodically. From the blood so collected, plasma was separated by centrifugation. The test compound in the plasma was determined by high-performance liquid chromatography and based on it, areas under concentration (AUC) in intravenous administration and oral administration were found respectively. Bioavailability (BA) of the test compound for the rats was calculated in accordance with the following equation.

[3] = system: renal hypertensive rats; assay: Antihypertensive action on renal hypertensive rats (invasive); format: in vivo, rat; settings: male SD renal hypertensive rats, mean blood pressure, orally 0.3 mg/kg, suspended in 0.5% carboxymethyl cellulose
Description: Antihypertensive action on renal hypertensive rats (invasive)
Renal hypertensive rats were each prepared by constricting the left renal artery of a male SD rat (age: 6 weeks old, body weight: 190-220 g) with a silver clip (inner diameter: 0.017 inch) under anesthesia. Antihypertensive action was studied employing the rats whose mean blood pressure arose to 150 mmHg or higher in 4-8 weeks after the constriction of the renal artery. On the day before the test, a cannula for measure of blood pressure was inserted into the femoral artery of each of the renal hypertensive rats under anesthesia and was allowed to remain in the artery. The rats were maintained on food and water ad libitum until immediately before the test was started. The cannula so inserted was connected to a blood pressure transducer and a mean blood pressure was recorded on a polygraph. After the blood pressure became stable, the test compound which was suspended in 0.5% carboxymethyl cellulose was orally administered to each of the rats at 0.3 mg/kg. In accordance with the following equation, a decreased rate of blood pressure (%) was calculated from the blood pressure values before and after the administration of the test compound.

## CCc1nn(Cc2ccc(-c3ccccc3-c3nnn[nH]3)cc2)c(=NC(=O)C2=C(C(=O)O)CCC2)s1 [Compound (2), 2-[[5-Ethyl-3-[2'-(1H-tetrazol-5-yl)biphenyl-4-yl]methyl-1,3,4-thiadiazolin-2-ylidene]aminocarbonyl]-1-cyclopentenecarboxylic acid]
[1]
  Inhibition of blood pressure increase (%): 54.2%
[2]
  BA (%): 12.0%
[3]
  Rate of decrease in blood pressure: 10.8%

## CCc1nn(Cc2ccc(-c3ccccc3-c3nnn[nH]3)cc2)c(=NC(=O)C2=C(C(=O)O)CCC2)s1 [Compound A, dipotassium 2-[[5-ethyl-3-[2'-(1H-tetrazol-5-yl)biphenyl-4-yl]methyl-1,3,4-thiadiazolin-2-ylidene]aminocarbonyl]-1-cyclopentenecarboxylate]
[1]
  Inhibition of blood pressure increase (%): 84.6%
[2]
  BA (%): 42.8%
[3]; 0.3 mg/kg
  Rate of decrease in blood pressure: 23.0%

## CCc1nn(Cc2ccc(-c3ccccc3-c3nnn[nH]3)cc2)c(=NC(=O)C2=C(C(=O)[O-])CCC2)s1.[K+] [Compound B, monopotassium 2-[[5-ethyl-3-[2' -(1H-tetrazol-5-yl)biphenyl-4-yl]methyl-1,3,4-thiadiazolin-2-ylidene]aminocarbonyl]-1-cyclopentenecarboxylate]
[3]
  Rate of decrease in blood pressure: 19.8%

## CCc1nn(Cc2ccc(-c3ccccc3-c3nn[nH]n3)cc2)c(=NC(=O)C2=C(C(=O)O)CCC2)s1 [Control 2Na salt, reference compound]
[3]; 0.3 mg/kg
  Rate of decrease in blood pressure: 12.9%

Reference: patent publication EP0744402B1, “POTASSIUM SALT OF BIPHENYLMETHANE DERIVATIVE AND MEDICINE CONTAINING THE SAME” (priority 1994, dated 1995)
